Test results from PubChem BioAssay AID1963966 (Molecular Pharmacology Branch, DTP, NCI, 2024).
“And” between values parts separate entries of the source, which are not always exact repeats. Identical values can stand only once.

Tested on: 935938-334-R-J1-PDC spheroids with HUVEC/MSC, viability
Assay: Anticancer human tumor 935938-334-R-J1-PDC patient-derived small intestine adenocarcinoma cell line growth inhibition [PI3K]
Conditions: for viability, T/C: stronger effect = lower value
How it was run: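 Targeted small molecules plus PI3K inhibitors, half-log dose series from Cmax (default top 10 microM), were applied to heterotypic spheroids of cancer cells with HUVEC and MSCs. Viability indicated growth inhibition.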

[1] = curve of first compound, second compound 0.00316 µM
[2] = curve of first compound, second compound 0.01 µM
[3] = curve of first compound, second compound 0.0316 µM
[4] = curve of first compound, second compound 0.1 µM
[5] = curve of first compound, second compound 0.316 µM
[6] = curve of first compound, second compound 1 µM
[7] = second compound 0.0316 µM, first compound 0.0316 µM
[8] = second compound 0.0316 µM, first compound 0.1 µM
[9] = second compound 0.1 µM, first compound 0.0316 µM
[10] = second compound 0.1 µM, first compound 0.1 µM
[11] = second compound 0.316 µM, first compound 0.0316 µM
[12] = second compound 0.316 µM, first compound 0.1 µM
[13] = second compound 1 µM, first compound 0.0316 µM
[14] = second compound 1 µM, first compound 0.1 µM
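Further: compound exposure lasted seven days before viability was read.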
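Wherever viability, T/C is given: percent of vehicle DMSO treated spheroid viability so 100% = untreated.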

Structure (SMILES): Cn1cnc2c(F)c(Nc3ccc(Br)cc3Cl)c(C(=O)NOCCO)cc21 + COc1c(OCCCN2CCOCC2)ccc2c3n(c(=NC(=O)c4cnc(N)nc4)nc12)CCN3
- IC50 [1]: 0.0609 µM
- IC50 [2]: 0.0566 µM
- IC50 [3]: 0.0403 µM
- IC50 [4]: < 0.00949 µM
- IC50 [5]: < 0.00949 µM
- IC50 [6]: < 0.00949 µM
- viability, T/C (second compound 0.00316 µM, first compound 0.00949 µM): 70.9%
- viability, T/C (second compound 0.00316 µM, first compound 0.03 µM): 55.8%
- viability, T/C (second compound 0.00316 µM, first compound 0.0949 µM): 49.6%
- viability, T/C (second compound 0.00316 µM, first compound 0.3 µM): 30.8%
- viability, T/C (second compound 0.00316 µM, first compound 0.949 µM): 30.9%
- viability, T/C (second compound 0.00316 µM, first compound 3 µM): 23.4%
- viability, T/C (second compound 0.01 µM, first compound 0.00949 µM): 76.8%
- viability, T/C (second compound 0.01 µM, first compound 0.03 µM): 63.6%
- viability, T/C (second compound 0.01 µM, first compound 0.0949 µM): 36.4%
- viability, T/C (second compound 0.01 µM, first compound 0.3 µM): 32.6%
- viability, T/C (second compound 0.01 µM, first compound 0.949 µM): 22.6%
- viability, T/C (second compound 0.01 µM, first compound 3 µM): 18.4%
- viability, T/C (second compound 0.0316 µM, first compound 0.00949 µM): 64.5%
- viability, T/C (second compound 0.0316 µM, first compound 0.03 µM): 51.7%
- viability, T/C (second compound 0.0316 µM, first compound 0.0949 µM): 42.4%
- viability, T/C (second compound 0.0316 µM, first compound 0.3 µM): 27%
- viability, T/C (second compound 0.0316 µM, first compound 0.949 µM): 22.2%
- viability, T/C (second compound 0.0316 µM, first compound 3 µM): 20.3%
- viability, T/C (second compound 0.1 µM, first compound 0.00949 µM): 31.4%
- viability, T/C (second compound 0.1 µM, first compound 0.03 µM): 29.9%
- viability, T/C (second compound 0.1 µM, first compound 0.0949 µM): 20.9%
- viability, T/C (second compound 0.1 µM, first compound 0.3 µM): 16.2%
- viability, T/C (second compound 0.1 µM, first compound 0.949 µM): 17.3%
- viability, T/C (second compound 0.1 µM, first compound 3 µM): 14.1%
- viability, T/C (second compound 0.316 µM, first compound 0.00949 µM): 26.8%
- viability, T/C (second compound 0.316 µM, first compound 0.03 µM): 21.4%
- viability, T/C (second compound 0.316 µM, first compound 0.0949 µM): 19.4%
- viability, T/C (second compound 0.316 µM, first compound 0.3 µM): 17.7%
- viability, T/C (second compound 0.316 µM, first compound 0.949 µM): 18.9%
- viability, T/C (second compound 0.316 µM, first compound 3 µM): 15%
- viability, T/C (second compound 1 µM, first compound 0.00949 µM): 29%
- viability, T/C (second compound 1 µM, first compound 0.03 µM): 24.4%
- viability, T/C (second compound 1 µM, first compound 0.0949 µM): 21.4%
- viability, T/C (second compound 1 µM, first compound 0.3 µM): 21.3%
- viability, T/C (second compound 1 µM, first compound 0.949 µM): 17.9%
- viability, T/C (second compound 1 µM, first compound 3 µM): 14%

Structure (SMILES): CC1(C)CCC(Nc2ncc(C(F)(F)F)c(-c3c[nH]c4c(P(C)(C)=O)c(C#N)ccc34)n2)CN1 (configuration not stated)
- viability, T/C (compound 0.0316 µM): 43.3% [middle of 4 runs]
- viability, T/C (compound 0.1 µM): 39.1% [middle of 4 runs]
- viability, T/C (compound 0.316 µM): 34.6% [middle of 4 runs]
- viability, T/C (compound 1 µM): 38.5% and 38.1% and 35.8% (2×)
- viability, T/C (compound 3.16 µM): 35.1% [middle of 4 runs]
- viability, T/C (compound 10 µM): 7.76% [middle of 4 runs]
- IC50 (curve of compound): < 0.0316 µM

Structure (SMILES): CC(=O)c1c(C)c2cnc(Nc3ccc(N4CCNCC4)cn3)nc2n(C2CCCC2)c1=O + CC(Nc1ccc2c(c1)OCCn1cc(N3C(=O)OCC3C(F)F)nc1-2)C(N)=O
- IC50 [1]: 0.0623 µM
- IC50 [2]: 0.0617 µM
- IC50 [3]: 0.059 µM
- IC50 [4]: 0.0472 µM
- IC50 [5]: 0.0499 µM
- IC50 [6]: 0.0262 µM
- viability, T/C (second compound 0.00316 µM, first compound 0.000316 µM): 82.7%
- viability, T/C (second compound 0.00316 µM, first compound 0.001 µM): 66%
- viability, T/C (second compound 0.00316 µM, first compound 0.00316 µM): 97.2%
- viability, T/C (second compound 0.00316 µM, first compound 0.01 µM): 90.4%
- viability, T/C (second compound 0.00316 µM, first compound 0.0316 µM): 95.5%
- viability, T/C (second compound 0.00316 µM, first compound 0.1 µM): 24.6%
- viability, T/C (second compound 0.01 µM, first compound 0.000316 µM): 81.3%
- viability, T/C (second compound 0.01 µM, first compound 0.001 µM): 70.7%
- viability, T/C (second compound 0.01 µM, first compound 0.00316 µM): 92.6%
- viability, T/C (second compound 0.01 µM, first compound 0.01 µM): 86.7%
- viability, T/C (second compound 0.01 µM, first compound 0.0316 µM): 82.7%
- viability, T/C (second compound 0.01 µM, first compound 0.1 µM): 26.5%
- viability, T/C (second compound 0.0316 µM, first compound 0.000316 µM): 67.7%
- viability, T/C (second compound 0.0316 µM, first compound 0.001 µM): 65.7%
- viability, T/C (second compound 0.0316 µM, first compound 0.00316 µM): 112%
- viability, T/C (second compound 0.0316 µM, first compound 0.01 µM): 81.4%
- viability, T/C [7]: 98.2%
- viability, T/C [8]: 20.3%
- viability, T/C (second compound 0.1 µM, first compound 0.000316 µM): 76.2%
- viability, T/C (second compound 0.1 µM, first compound 0.001 µM): 81.7%
- viability, T/C (second compound 0.1 µM, first compound 0.00316 µM): 72.4%
- viability, T/C (second compound 0.1 µM, first compound 0.01 µM): 91.3%
- viability, T/C [9]: 66.4%
- viability, T/C [10]: 19.3%
- viability, T/C (second compound 0.316 µM, first compound 0.000316 µM): 63.5%
- viability, T/C (second compound 0.316 µM, first compound 0.001 µM): 65.1%
- viability, T/C (second compound 0.316 µM, first compound 0.00316 µM): 74.8%
- viability, T/C (second compound 0.316 µM, first compound 0.01 µM): 77.2%
- viability, T/C [11]: 70.7%
- viability, T/C [12]: 19.5%
- viability, T/C (second compound 1 µM, first compound 0.000316 µM): 47.9%
- viability, T/C (second compound 1 µM, first compound 0.001 µM): 57.5%
- viability, T/C (second compound 1 µM, first compound 0.00316 µM): 82.2%
- viability, T/C (second compound 1 µM, first compound 0.01 µM): 67.3%
- viability, T/C [13]: 47.3%
- viability, T/C [14]: 20.6%

Structure (SMILES): Cn1ncc(Cl)c1-c1cc(C(=O)NC(CN)Cc2cccc(F)c2)sc1Cl (configuration not stated) + Cc1nc(NC(=O)N2CCCC2C(N)=O)sc1-c1ccnc(C(C)(C)C(F)(F)F)c1
- IC50 [3]: 3.01 µM
- IC50 [4]: 0.743 µM
- IC50 [5]: 0.776 µM
- IC50 [6]: 0.266 µM
- IC50 (curve of first compound, second compound 3.16 µM): 0.144 µM
- IC50 (curve of first compound, second compound 10 µM): < 0.0316 µM
- viability, T/C [7]: 83.4%
- viability, T/C [8]: 87.5%
- viability, T/C (second compound 0.0316 µM, first compound 0.316 µM): 61.9%
- viability, T/C (second compound 0.0316 µM, first compound 1 µM): 67.4%
- viability, T/C (second compound 0.0316 µM, first compound 3.16 µM): 38.1%
- viability, T/C (second compound 0.0316 µM, first compound 10 µM): 52.8%
- viability, T/C [9]: 100%
- viability, T/C [10]: 77.2%
- viability, T/C (second compound 0.1 µM, first compound 0.316 µM): 60.4%
- viability, T/C (second compound 0.1 µM, first compound 1 µM): 45.9%
- viability, T/C (second compound 0.1 µM, first compound 3.16 µM): 37%
- viability, T/C (second compound 0.1 µM, first compound 10 µM): 24.3%
- viability, T/C [11]: 90.7%
- viability, T/C [12]: 67.3%
- viability, T/C (second compound 0.316 µM, first compound 0.316 µM): 60.6%
- viability, T/C (second compound 0.316 µM, first compound 1 µM): 45.1%
- viability, T/C (second compound 0.316 µM, first compound 3.16 µM): 43.3%
- viability, T/C (second compound 0.316 µM, first compound 10 µM): 26.8%
- viability, T/C [13]: 48.2%
- viability, T/C [14]: 62.4%
- viability, T/C (second compound 1 µM, first compound 0.316 µM): 42.6%
- viability, T/C (second compound 1 µM, first compound 1 µM): 46.9%
- viability, T/C (second compound 1 µM, first compound 3.16 µM): 35.7%
- viability, T/C (second compound 1 µM, first compound 10 µM): 23.8%
- viability, T/C (second compound 3.16 µM, first compound 0.0316 µM): 53.5%
- viability, T/C (second compound 3.16 µM, first compound 0.1 µM): 62.5%
- viability, T/C (second compound 3.16 µM, first compound 0.316 µM): 34.4%
- viability, T/C (second compound 3.16 µM, first compound 1 µM): 38%
- viability, T/C (second compound 3.16 µM, first compound 3.16 µM): 27.1%
- viability, T/C (second compound 3.16 µM, first compound 10 µM): 22.4%
- viability, T/C (second compound 10 µM, first compound 0.0316 µM): 37.9%
- viability, T/C (second compound 10 µM, first compound 0.1 µM): 35.8%
- viability, T/C (second compound 10 µM, first compound 0.316 µM): 39.2%
- viability, T/C (second compound 10 µM, first compound 1 µM): 39%
- viability, T/C (second compound 10 µM, first compound 3.16 µM): 28.1%
- viability, T/C (second compound 10 µM, first compound 10 µM): 26.7%

Structure (SMILES): CC(C)NCC(C(=O)N1CCN(c2ncnc3c2C(C)CC3O)CC1)c1ccc(Cl)cc1 (configuration not stated)
- viability, T/C (compound 0.1 µM): 85.6% [middle of 4 runs]
- viability, T/C (compound 0.316 µM): 86.1% [middle of 4 runs]
- viability, T/C (compound 1 µM): 74.3% [middle of 4 runs]
- IC50 (curve of compound): > 10 µM and 1.87 µM and 5.86 µM
